The text below walks through data of the C3SDB collision cross section collection.

Each structure is given as a SMILES string. Values joined by “and” are separate entries in the source; they are usually repeats but may differ in a detail not shown here. Identical values can stand only once.

For series [1] the following is noted: instrument: DT, stepped-field.
The conditions of series [2]: instrument: TW, calibrated with phosphatidylcholines (ESI+) and phosphatidylethanolamines (ESI-).
For series [3] the following is noted: instrument: DT, single field, calibrated with Agilent tune mix (Agilent).
For series [4] the following is noted: [M+H]+; instrument: DT; stepped-field.
The conditions of series [5]: instrument: DT, single field, calibrated with Agilent tune mix (Agilent). This is another data set of the same source.
The conditions of series [6]: instrument: DT, single field.
For series [7] the following is noted: [M+H]+; instrument: DT; stepped-field. The source holds these as a separate data set.
For series [8] the following is noted: instrument: TW, calibrated with phosphatidylcholines (ESI+) and phosphatidylethanolamines (ESI-). This is another data set of the same source.

Consider `CN1c2c(nc(N)[nH]c2=O)NCC1CNc1ccc(C(=O)N[C@H](CCC(=O)O)C(=O)O)cc1` (stereo partly drawn) [5-Methyl-THF], for which the “collision cross section (N2)” value is 197.52 Å² in series [1] ([M+H]+) and 200.57 Å² in series [1] ([M-H]-).

Consider `CC[C@H](C)[C@H](NC(=O)[C@H](Cc1ccc(O)cc1)NC(=O)[C@@H](NC(=O)[C@H](CCCN=C(N)N)NC(=O)[C@@H](N)CC(=O)O)C(C)C)C(=O)N[C@@H](Cc1cnc[nH]1)C(=O)N1CCC[C@H]1C(=O)N[C@@H](Cc1ccccc1)C(=O)N[C@@H](Cc1cnc[nH]1)C(=O)N[C@@H](CC(C)C)C(=O)O` [Angiotensin I], for which the “collision cross section (N2)” value is recorded as 387.3 Å² in series [1] ([M+2H]2+), 474.71 Å² in series [1] ([M+3H]3+), 549.24 Å² in series [1] ([M+4H]4+) and 357.31 Å² in series [1] ([M+H]+).

As for `CCCCC/C=C\C/C=C\C/C=C\C/C=C\CCCC(=O)O` [Arachidonic acid], the “collision cross section (N2)” value in series [1] ([M-H]-) is listed as 183.66 Å².

As for `NC(N)=NCCC[C@H](NC(=O)[C@H](Cc1ccccc1)NC(=O)[C@@H]1CCCN1C(=O)[C@H](CO)NC(=O)[C@H](Cc1ccccc1)NC(=O)CNC(=O)[C@@H]1CCCN1C(=O)[C@@H]1CCCN1C(=O)[C@@H](N)CCCN=C(N)N)C(=O)O` [Bradykinin], the “collision cross section (N2)” value in series [1] ([M+2H]2+) is 343.33 Å²; in series [1] ([M+3H]3+) it was 447.61 Å²; in series [1] ([M+H]+) it was 315.25 Å².

Turning to `CCCCCCCCCCCCCCC(=O)OC[C@H](CO[C@@H]1O[C@H](CO[C@H]2O[C@H](CO)[C@H](O)C(O)C2O)[C@H](O)C(O)C1O)OC(=O)CCCCCCCCCCCCCC` (stereo partly drawn) [DGDG(30:0)], the figures for the “collision cross section (N2)” value in series [2] ([M+NH4]+) and in series [2] ([M+Na]+) were 302.4 Å² and 299.6 Å², respectively.

For `CCCCCCCCCCCCC=CCC(=O)OC[C@H](CO[C@@H]1O[C@H](CO[C@H]2O[C@H](CO)[C@H](O)C(O)C2O)[C@H](O)C(O)C1O)OC(=O)CC=CCCCCCCCCCCCC` (stereo partly drawn) [DGDG(32:2)], the results for the “collision cross section (N2)” value in series [2] ([M+NH4]+) and in series [2] ([M+Na]+) were 302.2 Å² and 298 Å², respectively.

For `CCCCCCCCCCCCCCCCC(=O)OC[C@H](CO[C@@H]1O[C@H](CO[C@H]2O[C@H](CO)[C@H](O)C(O)C2O)[C@H](O)C(O)C1O)OC(=O)CCCCCCCCCCCCCCCC` (stereo partly drawn) [DGDG(34:0)], the “collision cross section (N2)” value in series [2] ([M+NH4]+) amounted to 314.2 Å²; in series [2] ([M+Na]+), 311.8 Å².

Turning to `CCCCCCCCCCCCCCC=CCC(=O)OC[C@H](CO[C@@H]1O[C@H](CO[C@H]2O[C@H](CO)[C@H](O)C(O)C2O)[C@H](O)C(O)C1O)OC(=O)CC=CCCCCCCCCCCCCCC` (stereo partly drawn) [DGDG(36:2)], the “collision cross section (N2)” value in series [2] ([M+K]+) is 315.3 Å²; in series [2] ([M+NH4]+) it was 315.2 Å²; in series [2] ([M+Na]+), 312.4 Å².

Take `CCCCCCCCCCCCCCCCCCCC(=O)O` [Eicosanoic acid]: in series [1] ([M-H]-), the “collision cross section (N2)” value was found to be 186.17 Å².

Turning to `N[C@@H](CSSC[C@H](N)C(=O)O)C(=O)O` [L-Cystine], the “collision cross section (N2)” value in series [3] ([M+H]+) was found to be 149.4 Å²; in series [1] ([M+H]+), 150.08 Å²; in series [1] ([M+Na]+), 151.81 Å²; in series [1] ([M-H]-), 144.39 Å².

On to `N[C@@H](CCC(=O)O)C(=O)O` [L-Glutamate], for which the “collision cross section (N2)” value in series [1] ([M-H]-) turned out to be 125.65 Å².

For the compound `N[C@@H](Cc1cnc[nH]1)C(=O)O` [L-Histidine], the “collision cross section (N2)” value is 132.41 Å² in series [4]; 131.9 Å² in series [3] ([M+H]+); 132.74 Å² in series [1] ([M+H]+); 135.48 Å² in series [1] ([M+Na]+); 130.01 Å² in series [1] ([M-H]-).

With `CC(C)C[C@H](N)C(=O)O` [L-Leucine], the “collision cross section (N2)” value in series [4] is listed as 135.16 Å²; in series [1] ([M+H]+), 135.56 Å²; in series [1] ([M-H]-) it was 132.51 Å².

For the compound `O=C(O)[C@@H]1CCCN1` [L-Proline], the entries for the “collision cross section (N2)” value in series [4], in series [3] ([M+H]+) and in series [1] ([M+H]+) were 126.48 Å², 125.1 Å² and 126.22 Å², respectively.

As to `CCCCCCCCCCCCCCCCCCCCCCCC(=O)O` [Lignoceric acid], in series [1] ([M-H]-), the “collision cross section (N2)” value was 201.11 Å².

Regarding `CCCCC/C=C\C/C=C\CCCCCCCC(=O)O` [Linoleic acid], the “collision cross section (N2)” value was 173.24 Å² in series [3] ([M-H]-) and 175.69 Å² in series [1] ([M-H]-).

On to `CC/C=C\C/C=C\C/C=C\CCCCCCCC(=O)O` [Linolenic acid], for which, in series [1] ([M-H]-), the “collision cross section (N2)” value was 174.88 Å².

For `CCCCCCCCCCCCCCCCCC(=O)OC(COC(=O)CCCCCCCCCCCCCC)COP(=O)([O-])OCC(O)COC(=O)C(N)CCCC[NH3+]` (stereo not drawn) [LysPG(33:0)], in series [2] ([M+H]+), the “collision cross section (N2)” value was 299.8 Å².

In the case of `CCCCCC/C=C/CCCCCCCCCC(=O)OCC(COP(=O)([O-])OCC(O)COC(=O)C(N)CCCC[NH3+])OC(=O)CCCCCCCCCCCCCCC` (stereo not drawn) [LysPG(34:1)], the “collision cross section (N2)” value in series [2] ([M+H]+) stood at 299.6 Å².

For the compound `CCCCCC/C=C\CCCCCCCCCC(=O)OCC(COP(=O)([O-])OCC(O)COC(=O)C(N)CCCC[NH3+])OC(=O)CCCCCCCC/C=C\CCCCCC` (stereo not drawn) [LysPG(35:2)], in series [2] ([M+H]+), the “collision cross section (N2)” value was 300.8 Å².

As to `CCCCCCCCCCCCCCCCCCCCC(=O)OC(COC(=O)CCCCCCCCCCCCCC)COP(=O)([O-])OCC(O)COC(=O)C(N)CCCC[NH3+]` (stereo not drawn) [LysPG(36:0)], the “collision cross section (N2)” value in series [2] ([M+H]+) was determined as 308.7 Å².

On to `CCCCCC/C=C\CCCCCCCCCC(=O)OCC(COP(=O)([O-])OCC(O)COC(=O)C(N)CCCC[NH3+])OC(=O)CCCCCCCCC/C=C\CCCCCC` (stereo not drawn) [LysPG(36:2)], for which the “collision cross section (N2)” value in series [2] ([M+H]+) is listed as 302.8 Å².

Consider `CC/C=C\C/C=C\C/C=C\CCCCCCCC(=O)OC[C@H](CO[C@@H]1O[C@H](CO)[C@H](O)C(O)C1O)OC(=O)CCCCC/C=C\C/C=C\C/C=C\CC` (stereo partly drawn) [MGDG(16:3/18:3)], for which the “collision cross section (N2)” value was found to be 280.3 Å² in series [2] ([M+CH3COO]-); 273.7 Å² in series [2] ([M+Cl]-); 273.6 Å² in series [2] ([M+K]+); 273.1 Å² in series [2] ([M+Na]+); 269.9 Å² in series [2] ([M-H]-).

`CCCCCCCCCCCCCCCCCC(=O)O[C@H](COC(=O)CCCCCCCCCCCC)COP(=O)(O)O` [PA(31:0)]: the “collision cross section (N2)” value in series [2] ([M-H]-) was determined as 248.2 Å².

Take `CCCCCC/C=C\CCCCCCCCCC(=O)O[C@H](COC(=O)CCCCCCC/C=C\CCCCCCCC)COP(=O)([O-])OCC[N+](C)(C)C` [PC(36:2)]: the “collision cross section (N2)” value was 291 Å² in series [5] ([M+HCOO]-); 291.3 Å² in series [5] ([M+H]+); 295.1 Å² in series [5] ([M+Na]+); 288.83 Å² and 290.58 Å² in series [6] ([M+H]+); 293.18 Å² in series [6] ([M+Na]+); 303.1 Å² in series [7]. In addition, the “collision cross section (N2)” value in series [8] ([M+CH3COO]-) is on record as 293.3 Å²; in series [8] ([M+H]+) it was 288.5 Å².

For the compound `CCCC/C=C\CCCCCCCC(=O)O[C@H](COC(=O)CCCCCCCCCCCCC)COP(=O)(O)OC[C@@H](O)CO` [PG(28:1)], in series [2] ([M-H]-), the “collision cross section (N2)” value came out at 251.2 Å².

For `CCCCCCCCCCCCCCCCCCCCC(=O)OC[C@H](COP(=O)(O)OC[C@@H](O)CO)OC(=O)CCCCCCCCCCCCCC` [PG(36:0)], the “collision cross section (N2)” value in series [2] ([M-H]-) was determined as 277.9 Å².

Regarding `CCCC/C=C\CCCCCCCC(=O)O[C@H](CO/C=C\CCCCCCCCCCCCC)COP(=O)(O)OC[C@@H](O)CO` [PG(p29:1)], the “collision cross section (N2)” value in series [2] ([M-H]-) amounted to 252.2 Å².

For `CCCC/C=C\CCCCCCCC(=O)O[C@H](CO/C=C\CCCCCCCCCCCCCC)COP(=O)(O)OC[C@@H](O)CO` [PG(p30:1)], the “collision cross section (N2)” value in series [2] ([M-H]-) was found to be 255.3 Å².

As for `CCCC/C=C\CCCCCCCC(=O)O[C@H](CO/C=C\CCCCCCCCCCCCCCCC)COP(=O)(O)OC[C@@H](O)CO` [PG(p32:1)], the “collision cross section (N2)” value in series [2] ([M-H]-) was determined as 262.1 Å².

On to `CCCC/C=C\C/C=C\CCCCCCCC(=O)O[C@H](CO/C=C\CCCCCCCCCCCCCC)COP(=O)(O)OC[C@@H](O)CO` [PG(p33:2)], for which, in series [2] ([M-H]-), the “collision cross section (N2)” value is 263.4 Å².

Take `CCCCCC/C=C\CCCCCCCC(=O)O` [Palmitoleic acid]: the “collision cross section (N2)” value in series [1] ([M-H]-) is 167.95 Å².

Turning to `Cc1ncc(COP(=O)(O)O)c(C=O)c1O` [Pyridoxal Phosphate], the “collision cross section (N2)” value stood at 151.94 Å² in series [1] ([M+H]+), 161.4 Å² in series [1] ([M+Na]+) and 150.8 Å² in series [1] ([M-H]-).

Turning to `CSCC[C@H](NC(=O)[C@H](CC(C)C)NC(=O)CNC(=O)[C@H](Cc1ccccc1)NC(=O)[C@H](Cc1ccccc1)NC(=O)[C@H](CCC(N)=O)NC(=O)[C@H](CCC(N)=O)NC(=O)[C@@H]1CCCN1C(=O)[C@H](CCCCN)NC(=O)[C@@H]1CCCN1C(=O)[C@@H](N)CCCN=C(N)N)C(N)=O` [Substance P], the entries for the “collision cross section (N2)” value in series [1] ([M+2H]2+), in series [1] ([M+3H]3+) and in series [1] ([M+H]+) were 399.88 Å², 495.74 Å² and 362.51 Å², respectively.

On to `O=c1[nH]c(=O)c2[nH]c(=O)[nH]c2[nH]1` [Uric acid], for which the “collision cross section (N2)” value in series [1] ([M-H]-) turned out to be 126.93 Å².
